One series concerns Staphylococcus aureus. The experiment in a line: Antibacterial activity against methicillin-resistant Staphylococcus aureus assessed as inhibition of bacterial growth incubated for 24 hrs by CLSI based broth microdilution method. The series is classed as functional. A general note: Dilution methods test growth across graded concentrations, often in twofold steps.
Another series has as its system Pseudomonas aeruginosa. Description: Antibacterial activity against Pseudomonas aeruginosa 27853 assessed as inhibition of bacterial growth incubated for 24 hrs by CLSI based broth microdilution method. The series is classed as functional.
Another series has as its system Candida parapsilosis. The experiment in a line: Antifungal activity against Candida parapsilosis ATCC 22019 assessed as inhibition of fungal growth incubated for 24 hrs. The series is classed as functional. The following applies: Lodderomyces parapsilosis.
The next series has as its system Candida albicans. The experiment in a line: Antifungal activity against Candida albicans ATCC 90023 assessed as inhibition of fungal growth incubated for 24 hrs. The series is classed as functional.
For series [1], the system named is HL-60. The experiment in a line: Antiproliferative activity against human HL-60 cells incubated for 48 hrs by MTT assay. The series is classed as functional, cell-based. The following applies: HL-60, 48 h. A general note: Formazan colour is commonly taken as a measure of viable cells.
Series [2] deals with HL-60. The experiment in a line: Potency index, ratio of berberine IC50 to test compound IC50 for antiproliferative activity against human HL-60 cells incubated for 48 hrs by MTT assay. The series is classed as functional.
A further series relates to Influenza A virus. Description: Antiviral activity against influenza virus A A/PR/8/34 infected in MDCK cells assessed as inhibition of virus-induced cytopathic effect measured after 48 hrs by SRB bioassay. Conditions: A/PR/8/34, MDCK. The series is classed as functional, organism-based. Background: Damage to the host cells serves as the signal in cytopathic effect assays.

Series [3] in a line: Cytotoxicity against MDCK cells incubated for 48 hrs by SRB bioassay. The following applies: dog. The series is classed as toxicity, cell-based, Canis lupus familiaris.
Series [4] can be described thus: Therapeutic index, ratio of CC50 for cytotoxicity against MDCK cells to IC50 for antiviral activity against influenza virus A A/PR/8/34. The series is classed as toxicity, cell-based. Conditions: dog, read-out: TI.
The target in the next series is Acetylcholinesterase (Homo sapiens, UniProt P22303). Description: Inhibition of acetylcholinesterase (unknown origin) using acetylthiocholine iodide as substrate incubated for 10 mins by Ellman's colorimetric method.
Sequence of Acetylcholinesterase (P22303 whole entry): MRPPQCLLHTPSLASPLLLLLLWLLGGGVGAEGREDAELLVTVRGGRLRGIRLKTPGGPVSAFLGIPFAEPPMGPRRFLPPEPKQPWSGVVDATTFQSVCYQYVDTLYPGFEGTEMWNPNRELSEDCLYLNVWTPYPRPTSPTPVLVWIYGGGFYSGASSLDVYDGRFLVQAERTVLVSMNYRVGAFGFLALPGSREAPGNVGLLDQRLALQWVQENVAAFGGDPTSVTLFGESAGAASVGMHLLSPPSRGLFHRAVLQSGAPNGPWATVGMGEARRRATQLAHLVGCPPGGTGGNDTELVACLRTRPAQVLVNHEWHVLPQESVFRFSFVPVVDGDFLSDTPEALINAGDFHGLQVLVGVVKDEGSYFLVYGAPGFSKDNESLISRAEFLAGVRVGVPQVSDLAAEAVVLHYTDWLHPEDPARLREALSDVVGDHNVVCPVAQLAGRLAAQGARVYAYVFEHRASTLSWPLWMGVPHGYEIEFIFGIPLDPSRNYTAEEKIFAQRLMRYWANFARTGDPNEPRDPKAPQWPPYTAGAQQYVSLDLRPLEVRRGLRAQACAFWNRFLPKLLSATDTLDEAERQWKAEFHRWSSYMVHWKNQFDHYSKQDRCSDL
In series [5] the target is Amine oxidase [flavin-containing] B (Homo sapiens, UniProt P27338). Description: Inhibition of human MAO-B preincubated for 30 mins followed by substrate addition and measured for 10 to 40 mins by fluorescence based assay.
Sequence of Amine oxidase [flavin-containing] B (P27338 whole entry): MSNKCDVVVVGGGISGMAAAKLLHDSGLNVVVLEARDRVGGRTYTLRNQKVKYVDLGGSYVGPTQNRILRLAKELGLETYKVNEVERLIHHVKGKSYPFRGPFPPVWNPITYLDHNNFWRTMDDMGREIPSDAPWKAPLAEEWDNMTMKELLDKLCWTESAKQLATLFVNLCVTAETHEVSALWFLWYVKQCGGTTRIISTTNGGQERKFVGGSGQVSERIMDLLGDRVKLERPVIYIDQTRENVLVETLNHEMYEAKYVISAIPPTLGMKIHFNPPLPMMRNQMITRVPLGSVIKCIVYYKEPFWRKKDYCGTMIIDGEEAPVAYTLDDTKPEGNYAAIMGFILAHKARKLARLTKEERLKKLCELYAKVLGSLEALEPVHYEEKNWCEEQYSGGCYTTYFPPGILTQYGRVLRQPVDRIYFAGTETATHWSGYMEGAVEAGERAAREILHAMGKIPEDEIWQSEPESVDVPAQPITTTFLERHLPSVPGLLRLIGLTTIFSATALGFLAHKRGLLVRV
For the next series, the system named is Coxsackievirus B2. The experiment in a line: Antiviral activity against Human Coxsackievirus B2 infected in African green monkey Vero cells assessed as reduction in virus-induced cytopathic effect incubated for 48 hrs by microscopic analysis. The series is classed as functional, organism-based. Conditions: Enterovirus B.
The test system of a further series is Coxsackievirus B3. Description: Antiviral activity against Coxsackievirus B3 infected in African green monkey Vero cells assessed as reduction in virus-induced cytopathic effect incubated for 48 hrs by microscopic analysis. The series is classed as functional, organism-based. Conditions: Enterovirus B.
Another series concerns Coxsackievirus B4. Description: Antiviral activity against Coxsackievirus B4 infected in African green monkey Vero cells assessed as reduction in virus-induced cytopathic effect incubated for 48 hrs by microscopic analysis. Conditions: Enterovirus B. The series is classed as functional, organism-based.
A further series deals with Coxsackievirus B5. The experiment in a line: Antiviral activity against Coxsackievirus B5 infected in African green monkey Vero cells assessed as reduction in virus-induced cytopathic effect incubated for 48 hrs by microscopic analysis. The series is classed as functional, organism-based. Conditions: Enterovirus B.
The test system of a further series is Coxsackievirus B6. Description: Antiviral activity against Human Coxsackievirus B6 infected in African green monkey Vero cells assessed as reduction in virus-induced cytopathic effect incubated for 48 hrs by microscopic analysis. The series is classed as functional, organism-based. Conditions: Enterovirus B.
The subject of series [6] is RAW264.7. The experiment in a line: Antiinflammatory activity in LPS-induced mouse RAW264.7 cells assessed as reduction in COX-2 level at 25 uM pretreated for 1 hr followed by LPS stimulation and measured after 49 hrs by ELISA relative to control. The series is classed as functional. On the set-up: scale not given: the % may be the effect or the level left. Conditions: time 50 hrs.

The test system of series [7] is RAW264.7. Description: Antiinflammatory activity in LPS-induced mouse RAW264.7 cells assessed as reduction in […] level at 25 uM pretreated for 1 hr followed by LPS stimulation and measured after 49 hrs by ELISA relative to control. The series is classed as functional. On the set-up: scale not given: the % may be the effect or the level left. The following applies: time 50 hrs.

The nature of series [8]: Induction of glucose-stimulated insulin secretion in rat INS1 cells assessed as increase in insulin secretion at 25 uM pretreated for 48 hrs followed by glucose stimulation and measured after 1 hr by ELISA. The series is classed as functional.
A short description of series [9]: Acute toxicity in ip dosed NIH mouse expressing aP2-SREBP-1c assessed as lethal dose measured for 14 days by modified karber's method. The series is classed as organism-based. Conditions: in vivo, time 14 day.
Series [10] in a line: Cytotoxicity against mouse 3T3-L1 assessed as reduction in cell viability measured after 48 hrs by CCK-8 assay. The series is classed as toxicity, cell-based. The following applies: 3T3-L1 cells.

Molecules are shown by their SMILES. Converted amounts (≈) assume the structure as drawn.

Broadly, the MIC is the lowest concentration that inhibits growth of the organism. The IC50 is the concentration that inhibits the measured activity by half. In general, CC50 refers to the concentration that lowers cell viability or growth by half. The LD50 is the dose expected to kill half of the subjects tested.

In the case of `CCCCOc1c(OC)cc(/C=C2\SC(=O)NC2=O)c2c1CN1CCc3cc4c(cc3C1C2)OCO4` (stereo unspecified), the MIC in the series with Staphylococcus aureus was 8 µM (≈ 4.07 µg/mL); in the series with Pseudomonas aeruginosa, 8 µM (≈ 4.07 µg/mL); with Candida parapsilosis, 8 µM (≈ 4.07 µg/mL); in the series on Candida albicans, 16 µM (≈ 8.14 µg/mL).

Take `COc1ccc2cc3[n+](cc2c1OCCCBr)CCc1cc2c(cc1-3)OCO2.[Cl-]`: the IC50 in the series on HL-60 [1] is 0.7 µM. In the series with HL-60 [2], the “Ratio IC50” value came out at 30.

Take `COc1ccc(N2CCN(CCCCCOc3c(OC)ccc4cc5[n+](cc34)CCc3cc4c(cc3-5)OCO4)CC2)c(OC)c1.[Cl-]`: the IC50 in the series with Influenza A virus is 35.2 µg/mL. In addition, the CC50 at 48 h in [3] turned out to be 3890 µg/mL. In addition, in series [4], the selectivity ratio amounted to 111.

As for `COc1ccc2cc3[n+](cc2c1OC)CCc1cc(O)c(O)cc1-3`, the IC50 was 7.8 µM at Acetylcholinesterase and 9.06 µM in [5].

On to `COc1cc2c(cc1OCCOCCN)CC[n+]1cc3c(OC)c(OC)ccc3cc1-2`, for which the IC50 in the series with Coxsackievirus B2, with Coxsackievirus B3, in the series on Coxsackievirus B4, in the series on Coxsackievirus B5 and in the series with Coxsackievirus B6 was 3.08 µM in each case.

As for `COc1ccc2cc3[n+](cc2c1OCc1nc(C)nc(N(C)C)n1)CCc1cc2c(cc1-3)OCO2.[Cl-]`, the Activity in the series with RAW264.7 [6] came to 25.42%; with RAW264.7 [7], 36.41%; in [8], 143%.

For the compound `C=CCc1ccc(O)c(-c2cc(CC=C)ccc2OCCOc2c(OC)ccc3cc4[n+](cc23)CCc2cc3c(cc2-4)OCO3)c1.[Cl-]`, in [9], the LD50 at 336 h came out at 279 mg/kg. In addition, the IC50 at 48 h in series [10] turned out to be 11.5 µM.

Values taken from ChEMBL document CHEMBL5096175, “An insight into the medicinal attributes of berberine derivatives: A review” (Bioorg Med Chem, 2021).
